Test results published in ChEMBL document CHEMBL1129035, “Tyrosine kinase inhibitors. 9. Synthesis and evaluation of fused tricyclic quinazoline analogues as ATP site inhibitors of the tyrosine kinase activity of the epidermal growth factor receptor” (J Med Chem, 1996).

Legend:
[1] = target: T1, Epidermal growth factor receptor (Homo sapiens, UniProt P00533); test: Inhibition of tyrosine kinase activity of Epidermal growth factor receptor from human A431 cells
[2] = target: T1, Epidermal growth factor receptor; test: Inhibition of tyrosine kinase activity of Epidermal growth factor receptor from human A431 carcinoma cells
[3] = target: Platelet-derived growth factor receptor (Mus musculus, UniProt P05622+P26618); test: Inhibition of PDGF-mediated mitogenesis in Swiss 3T3 cells; type: functional, cell-based
Protein kinase C (PKC) = test: Inhibition of Protein kinase C; type: protein assay
[4] = target: Proto-oncogene tyrosine-protein kinase Src (Homo sapiens, UniProt P12931); test: Inhibition of c-src enzyme.
Sequence of Proto-oncogene tyrosine-protein kinase Src (P12931 2-536 limits assumed): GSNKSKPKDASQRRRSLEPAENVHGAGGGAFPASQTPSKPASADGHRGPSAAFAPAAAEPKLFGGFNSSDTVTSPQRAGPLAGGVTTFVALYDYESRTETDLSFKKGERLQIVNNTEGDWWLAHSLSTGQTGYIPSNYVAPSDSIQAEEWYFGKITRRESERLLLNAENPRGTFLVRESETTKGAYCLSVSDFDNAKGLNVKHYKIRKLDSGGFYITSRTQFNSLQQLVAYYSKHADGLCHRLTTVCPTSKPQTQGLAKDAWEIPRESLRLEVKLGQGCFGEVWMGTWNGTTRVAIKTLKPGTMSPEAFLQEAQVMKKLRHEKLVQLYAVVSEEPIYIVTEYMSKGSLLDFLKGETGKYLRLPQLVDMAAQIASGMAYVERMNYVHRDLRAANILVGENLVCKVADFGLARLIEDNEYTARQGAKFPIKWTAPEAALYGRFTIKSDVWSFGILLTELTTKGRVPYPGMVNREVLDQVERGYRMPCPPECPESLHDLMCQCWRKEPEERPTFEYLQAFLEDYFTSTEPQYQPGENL

[5] = Inhibitory activity against v-src enzyme.
[6] = target: Fibroblast growth factor receptor (Homo sapiens, UniProt P22607+P11362+P22455+P21802); test: Inhibition of Fibroblast growth factor receptor; type: protein assay
Insulin receptor = Insulin receptor (Homo sapiens, UniProt P06213); test: Inhibition of Insulin receptor.
Sequence of Insulin receptor (P06213 28-758 limits assumed): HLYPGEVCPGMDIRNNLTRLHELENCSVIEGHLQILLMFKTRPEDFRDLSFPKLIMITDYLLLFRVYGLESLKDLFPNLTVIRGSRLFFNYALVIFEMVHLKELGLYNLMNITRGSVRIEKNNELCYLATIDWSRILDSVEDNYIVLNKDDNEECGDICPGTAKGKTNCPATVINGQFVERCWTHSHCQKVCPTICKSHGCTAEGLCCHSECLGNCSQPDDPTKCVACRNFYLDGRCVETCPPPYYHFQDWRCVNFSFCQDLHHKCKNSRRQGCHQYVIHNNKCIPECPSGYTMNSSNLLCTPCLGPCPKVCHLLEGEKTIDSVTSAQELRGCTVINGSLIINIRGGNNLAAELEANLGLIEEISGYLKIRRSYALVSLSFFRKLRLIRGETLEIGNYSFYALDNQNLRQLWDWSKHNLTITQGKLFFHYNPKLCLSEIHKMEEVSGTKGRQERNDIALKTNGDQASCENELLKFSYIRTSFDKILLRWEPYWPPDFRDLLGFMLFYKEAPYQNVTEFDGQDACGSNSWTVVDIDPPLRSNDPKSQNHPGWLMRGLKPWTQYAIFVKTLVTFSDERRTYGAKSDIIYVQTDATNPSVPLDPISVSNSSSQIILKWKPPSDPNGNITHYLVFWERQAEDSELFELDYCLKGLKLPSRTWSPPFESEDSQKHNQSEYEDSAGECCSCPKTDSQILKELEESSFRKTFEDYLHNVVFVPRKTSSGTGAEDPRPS
Sequence of Insulin receptor (P06213 763-1382 limits assumed): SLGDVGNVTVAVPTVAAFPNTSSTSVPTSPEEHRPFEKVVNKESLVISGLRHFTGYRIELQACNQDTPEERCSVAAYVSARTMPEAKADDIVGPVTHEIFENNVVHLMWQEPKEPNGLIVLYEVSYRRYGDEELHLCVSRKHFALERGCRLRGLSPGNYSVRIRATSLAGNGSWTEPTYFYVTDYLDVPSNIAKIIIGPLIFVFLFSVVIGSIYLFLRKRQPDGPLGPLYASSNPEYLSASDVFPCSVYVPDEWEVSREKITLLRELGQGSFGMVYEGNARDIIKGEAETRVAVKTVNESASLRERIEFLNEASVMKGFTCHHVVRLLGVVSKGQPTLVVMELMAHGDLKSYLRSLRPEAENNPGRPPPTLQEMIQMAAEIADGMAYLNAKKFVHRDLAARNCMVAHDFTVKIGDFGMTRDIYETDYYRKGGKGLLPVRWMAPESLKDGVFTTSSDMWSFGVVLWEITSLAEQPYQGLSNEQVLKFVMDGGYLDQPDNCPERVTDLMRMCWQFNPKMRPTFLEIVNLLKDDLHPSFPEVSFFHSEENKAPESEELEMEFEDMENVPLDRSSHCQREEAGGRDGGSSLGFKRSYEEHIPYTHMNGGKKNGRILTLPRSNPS

[7] = Inhibition of Platelet-derived growth factor receptor
[8] = target: Fibroblast growth factor receptor (Mus musculus, UniProt P21803+Q03142+P16092+Q61851); test: Inhibition of FGF-mediated mitogenesis in Swiss 3T3 cells; type: functional, cell-based

T1 sequence (P00533 whole entry): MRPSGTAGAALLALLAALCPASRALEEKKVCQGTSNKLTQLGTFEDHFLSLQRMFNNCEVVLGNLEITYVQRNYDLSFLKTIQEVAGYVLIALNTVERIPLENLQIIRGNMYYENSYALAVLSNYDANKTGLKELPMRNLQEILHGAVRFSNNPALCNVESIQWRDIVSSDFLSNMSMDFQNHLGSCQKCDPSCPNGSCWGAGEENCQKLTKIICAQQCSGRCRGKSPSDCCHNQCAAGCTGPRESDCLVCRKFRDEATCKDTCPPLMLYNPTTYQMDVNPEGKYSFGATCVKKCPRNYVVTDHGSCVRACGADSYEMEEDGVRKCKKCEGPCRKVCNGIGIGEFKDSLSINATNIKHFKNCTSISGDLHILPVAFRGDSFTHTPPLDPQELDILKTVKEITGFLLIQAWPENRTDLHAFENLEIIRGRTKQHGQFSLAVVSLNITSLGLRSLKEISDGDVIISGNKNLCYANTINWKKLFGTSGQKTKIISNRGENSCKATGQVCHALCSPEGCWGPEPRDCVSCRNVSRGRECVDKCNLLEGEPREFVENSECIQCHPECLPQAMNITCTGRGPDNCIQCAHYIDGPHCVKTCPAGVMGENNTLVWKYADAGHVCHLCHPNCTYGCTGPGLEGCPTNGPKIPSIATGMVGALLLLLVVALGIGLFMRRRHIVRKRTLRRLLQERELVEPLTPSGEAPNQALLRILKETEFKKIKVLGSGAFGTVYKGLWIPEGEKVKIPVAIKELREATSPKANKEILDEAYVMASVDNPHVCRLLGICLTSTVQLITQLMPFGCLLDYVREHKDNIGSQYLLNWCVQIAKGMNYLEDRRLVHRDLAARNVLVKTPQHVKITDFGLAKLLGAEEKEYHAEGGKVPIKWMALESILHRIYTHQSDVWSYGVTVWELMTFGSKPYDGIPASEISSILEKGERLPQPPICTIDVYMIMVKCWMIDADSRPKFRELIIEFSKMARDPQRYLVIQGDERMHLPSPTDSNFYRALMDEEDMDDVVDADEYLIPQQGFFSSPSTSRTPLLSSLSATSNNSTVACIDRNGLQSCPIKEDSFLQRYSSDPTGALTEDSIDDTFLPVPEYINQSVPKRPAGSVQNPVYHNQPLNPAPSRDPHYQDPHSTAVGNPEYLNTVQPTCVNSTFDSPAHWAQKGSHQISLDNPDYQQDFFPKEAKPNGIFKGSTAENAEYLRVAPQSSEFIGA

IC50 [1] | IC50 [2] | Compound | also measured
0.34 nM |  | Brc1cccc(Nc2ncnc3cc4cn[nH]c4cc23)c1 | 
1.32 nM |  | CN(C)CCn1cnc2cc3ncnc(Nc4cccc(Br)c4)c3cc21 | 
22 nM |  | CN(C)CCn1cnc2cc3c(Nc4cccc(Br)c4)ncnc3cc21 | 
 | 0.01 nM | Cn1cnc2cc3ncnc(Nc4cccc(Br)c4)c3cc21 | 
4.1 nM |  | Brc1cccc(Nc2ncnc3cc4[nH]nnc4cc23)c1 | 
0.44 nM |  | Brc1cccc(Nc2ncnc3cc4[nH]ncc4cc23)c1 | 
203 nM |  | CN(C)CCn1cnc2c(Cl)c3c(Nc4cccc(Br)c4)ncnc3cc21 | 
 | 1.24 nM | Brc1cccc(Nc2ncnc3ccc4cc[nH]c4c23)c1 | 
 | 0.003 nM | Brc1cccc(Nc2ncnc3cc4ccccc4cc23)c1 | 
 | 272 nM | Brc1cccc(Nc2ncnc3c2ccc2[nH]cnc23)c1 | 
 |  | Brc1cccc(Nc2ncnc3cc4[nH]cnc4cc23)c1 | IC50 [3]: > 50000 nM; IC50 (Protein kinase C (PKC)): > 50000 nM; IC50 [4]: > 50000 nM; IC50 [5]: > 50000 nM; IC50 [6]: > 50000 nM; IC50 (Insulin receptor): > 50000 nM; IC50 [7]: > 50000 nM; IC50 [8]: > 50000 nM
 | 44 nM | Brc1cccc(Nc2ncnc3cc4ncsc4cc23)c1 | 
 | 0.29 nM | Cc1nc2cc3ncnc(Nc4cccc(Br)c4)c3cc2[nH]1 | 

Compound | IC50 [1] | IC50 [2] | also measured
Brc1cccc(Nc2ncnc3cc4[nH]ccc4cc23)c1 |  | 0.44 nM | 
